Laboratory results reported in patent US20240246950A1, “Anilino-Pyrazole Derivatives, Compositions and Methods Thereof” (Ensem Therapeutics, priority 2022, published 2024).

Columns and labels:
CDK1/cyclinB [1] = target: T1, CDK1/cyclinB (Homo sapiens, UniProt P06493); experiment: In vitro kinase Caliper assay CDK1/cyclinB; assay type: biochemical; settings: enzyme 1 nM, 28° C. 30 min
Description: (§1) In Vitro Kinase Caliper Assays: CDK2/CycA2, CDK2/CycE1, CDK1/cyclinB and GSK3β
(§2) 1× Kinase buffer (50 mM HEPES pH 7.5, 10 mM MgCl2, 2 mM DTT and 0.01% Brij-35) The test compounds were prepared as 10 mM stock solution in 100% DMSO. The stock solution was then serially diluted 3-fold in 100% DMSO to 10 concentrations. 200 nL of each diluted compound solution was transferred to 384-well plate in duplicate. To each well, 10 μL of enzyme solution containing either CDK2/CycA2, CDK2/CycE1, CDK1/cyclinB, or GSK3β (final concentrations 10 nM, 3 nM, 1 nM, 1 nM respectively) in 1× Kinase buffer and the mix incubated at room temperature for 10 min. To initiate each reaction, 10 μL of peptide solution containing FAM-labelled peptide with final concentration at 3000 nM (FAM-P18 (5-FAM-QSPKKG-CONH2) for CDK2/CycA2, CDK2/CycE1, CDK1/cyclinB proteins, FAM-P15 (5-FAM-KRREILSRRPpSYR—COOH) for GSK30 protein) and ATP (final concentrations 30 μM, 77 μM or 20 μM, respectively) in 1× Kinase buffer was added to each well. All reactions were incubated at 28° C. for 30 min and then terminated by the addition of 30 μL stop buffer (100 mM HEPES pH 7.5, 50 mM EDTA, 0.2% Coating Reagent #3 and 0.015% Brij-35). All samples were then subjected to analysis using Caliper EZ Reader to read conversion values. IC50 values were then calculated by plotting dose-response curves and then using the XLfit application in Excel software.

CDK2/CycA2 [2] = target: T2, CDK2/CycA2 (Homo sapiens, UniProt P24941); experiment: In vitro kinase Caliper assay CDK2/CycA2; assay type: biochemical; settings: enzyme 10 nM, 28° C. 30 min, read-out: CDK2 cyclinA2 activity assay: IC50
Description: as §1, §2

CDK2/CycE1 [3] = target: T3, CDK2/CycE1 (Homo sapiens, UniProt P24941); experiment: In vitro kinase Caliper assay CDK2/CycE1; assay type: biochemical; settings: enzyme 3 nM, 28° C. 30 min, read-out: CDK2 cyclinE1 activity assay: IC50
Description: as §1, §2

GSK3β [4] = target: T4, GSK3β (Homo sapiens, UniProt P49841); experiment: In vitro kinase Caliper assay GSK3β; assay type: biochemical; settings: enzyme 1 nM, 28° C. 30 min
T4 sequence (P49841 whole entry, species assumed): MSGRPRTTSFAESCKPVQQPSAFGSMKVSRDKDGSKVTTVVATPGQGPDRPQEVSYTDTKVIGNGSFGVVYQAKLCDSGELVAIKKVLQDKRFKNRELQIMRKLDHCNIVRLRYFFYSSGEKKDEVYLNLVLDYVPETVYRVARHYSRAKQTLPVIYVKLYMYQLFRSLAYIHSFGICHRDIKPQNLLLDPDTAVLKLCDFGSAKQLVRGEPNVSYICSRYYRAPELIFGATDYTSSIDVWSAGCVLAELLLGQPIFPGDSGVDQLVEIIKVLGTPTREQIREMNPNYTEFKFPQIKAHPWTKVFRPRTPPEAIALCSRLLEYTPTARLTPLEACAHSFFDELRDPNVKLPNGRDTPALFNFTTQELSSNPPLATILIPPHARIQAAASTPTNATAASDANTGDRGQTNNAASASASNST
Description: as §1, §2

OVCAR3 = experiment: Cell proliferation (CyQUANT) OVCAR3; assay type: cell-based; settings: Homo sapiens, OVCAR-3, 168 h, OVCAR3, 7 days, read-out: Anti-proliferation assay: IC50 (nM) [Cell Line: OVCAR3]
Method in brief: (§3)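 Cells were seeded at 2500, 1000 or 3000 cells/well, cultured overnight, then exposed to 3-fold compound dilutions for 7 days (final DMSO at most 0.01%). CyQUANT fluorescence was read at Ex/Em 480/520 nm; % inhibition computed relative to same-plate DMSO wells.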

TOV21G = experiment: Cell proliferation (CyQUANT) TOV21G; assay type: cell-based; settings: Homo sapiens, 168 h, 7 days, read-out: Anti-proliferation assay: IC50 (nM) [Cell Line: TOV21G]
Method in brief: as §3

CDK1/cyclinB [5] = target: T1, CDK1/cyclinB; experiment: In vitro kinase TR-FRET assay CDK1/cyclinB; assay type: biochemical; settings: enzyme 0.3 nM, ATP 56 μM
Method in brief: (§4)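 Enzymes at 3 nM (CDK2/CycA2), 0.6 nM (CDK2/CycE1), 0.3 nM (CDK1/cyclinB), 0.6 nM (GSK3β) with ATP at 27, 82, 56, 7.6 μM respectively, 50 nM ULight-4E-BP1 peptide, HEPES pH7.5; 10-point 3-fold dilutions. 1 h reaction at room temperature; Eu-anti-phospho-4E-BP1 TR-FRET (665/615 nm) read; IC50 from dose-response curves.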

CDK2/CycA2 [6] = target: T2, CDK2/CycA2; experiment: In vitro kinase TR-FRET assay CDK2/CycA2; assay type: biochemical; settings: enzyme 3 nM, ATP 27 μM, read-out: CDK2 cyclinA2 activity assay: IC50
Method in brief: as §4

CDK2/CycE1 [7] = target: T3, CDK2/CycE1; experiment: In vitro kinase TR-FRET assay CDK2/CycE1; assay type: biochemical; settings: enzyme 0.6 nM, ATP 82 μM, read-out: CDK2 cyclinE1 activity assay: IC50
Method in brief: as §4

GSK3β [8] = target: T4, GSK3β; experiment: In vitro kinase TR-FRET assay GSK3β; assay type: biochemical; settings: enzyme 0.6 nM, ATP 7.6 μM
Method in brief: as §4

T1 sequence (P06493 whole entry): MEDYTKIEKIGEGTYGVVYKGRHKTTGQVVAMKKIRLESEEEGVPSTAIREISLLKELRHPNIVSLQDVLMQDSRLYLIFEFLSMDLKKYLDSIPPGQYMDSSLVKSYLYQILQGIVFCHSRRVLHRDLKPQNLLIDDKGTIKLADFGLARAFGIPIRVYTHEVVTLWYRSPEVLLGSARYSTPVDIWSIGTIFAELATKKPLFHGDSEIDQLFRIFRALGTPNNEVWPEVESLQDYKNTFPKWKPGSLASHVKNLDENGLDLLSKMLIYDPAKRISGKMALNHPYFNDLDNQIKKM
T1 sequence (P14635 whole entry partner): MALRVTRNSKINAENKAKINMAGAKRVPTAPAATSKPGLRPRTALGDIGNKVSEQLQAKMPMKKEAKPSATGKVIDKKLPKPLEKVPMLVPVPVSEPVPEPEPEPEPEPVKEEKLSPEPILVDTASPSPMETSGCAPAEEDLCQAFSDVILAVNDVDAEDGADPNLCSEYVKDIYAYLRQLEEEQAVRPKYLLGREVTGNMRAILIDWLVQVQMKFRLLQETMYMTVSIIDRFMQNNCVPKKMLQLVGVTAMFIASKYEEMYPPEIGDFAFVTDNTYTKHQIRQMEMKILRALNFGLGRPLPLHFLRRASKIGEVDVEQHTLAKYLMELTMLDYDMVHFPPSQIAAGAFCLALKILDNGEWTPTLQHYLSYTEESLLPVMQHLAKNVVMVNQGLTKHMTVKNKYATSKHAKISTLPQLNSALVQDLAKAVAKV

SMILES	IC50 (CDK1/cyclinB [1]) [nM]	IC50 (CDK2/CycA2 [2]) [nM]	IC50 (CDK2/CycE1 [3]) [nM]	IC50 (GSK3β [4]) [nM]	IC50 (OVCAR3) [nM]	IC50 (TOV21G) [nM]	IC50 (CDK1/cyclinB [5]) [nM]	IC50 (CDK2/CycA2 [6]) [nM]	IC50 (CDK2/CycE1 [7]) [nM]	IC50 (GSK3β [8]) [nM]
CC(C)NC(=O)O[C@@H]1CC[C@H](c2cc(Nc3ccc4c(c3)CNS4(=O)=O)n[nH]2)C1 [Example 3, (1R,3S)-3-(3-((1,1-dioxido-2,3-dihydrobenzo[d]isothiazol-5-yl)amino)-1H-pyrazol-5-yl)cyclopentyl isopropylcarbamate]	< 50	< 50	< 50	500 to 1000	≤ 500	≥ 1000				
CC(C)NC(=O)O[C@@H]1CC[C@H](c2cc(Nc3ccc4c(=O)[nH]n(C)c4c3)n[nH]2)C1 [Example 1, (1R,3S)-3-(3-((1-methyl-3-oxo-2,3-dihydro-1H-indazol-6-yl)amino)-1H-pyrazol-5-yl)cyclopentyl isopropylcarbamate]	50 to 500	< 50	< 50	50 to 500	≥ 1000	≥ 1000				
CC(C)NC(=O)O[C@@H]1CC[C@H](c2cc(Nc3ccc4c(c3)CCNS4(=O)=O)n[nH]2)C1 [Example 2, (1R,3S)-3-(3-((1,1-dioxido-3,4-dihydro-2H-benzo[e][1,2]thiazin-6-yl)amino)-1H-pyrazol-5-yl)cyclopentyl isopropylcarbamate]	< 50	< 50	< 50	500 to 1000	≤ 500	≥ 1000				
CC(C)NC(=O)O[C@@H]1CC[C@H](c2cc(Nc3cccc4c3CCN(C)S4(=O)=O)[nH]n2)C1 [Example 56, (1R,3S)-3-{5-[(2-methyl-1,1-dioxo-3,4-dihydro-2H-1λ6-benzo[2,1-e][1,2]thiazin-5-yl)amino]-1H-pyrazol-3-yl}cyclopentyl (prop-2-ylamino)methanoate]					≤ 500	≥ 1000	50 to 500	< 50	< 50	50 to 500
